Data from ChEMBL document CHEMBL5226308, “Amide-Amine Replacement in Indole-2-carboxamides Yields Potent Mycobactericidal Agents with Improved Water Solubility” (ACS Med Chem Lett, 2021).
Converted amounts (≈) assume the structure as drawn. The source made the active and inactive calls. The calls are words filed in the database; no cut-off is given here.

System: Mycobacterium tuberculosis variant bovis
Experiment: Antimycobacterial activity against Mycobacterium bovis BCG ATCC 35734 assessed as inhibition of bacterial growth incubated for 5 days in 7H9 standard media by broth dilution method
Assay type: functional
Settings: BCG ATCC 35734, 120 h, time 5 day

Compound	MIC50 [µM]	MIC90 [µM]
O=C(NC1CCCCCCC1)c1cc2ccc(C(F)(F)F)cc2[nH]1	0.02 (≈ 0.00677 µg/mL)	0.04 (≈ 0.0135 µg/mL)
O=C(NC1CCCCCCC1)c1cc2cc(Cl)ccc2[nH]1		0.8 (≈ 0.244 µg/mL)
Clc1ccc2cc(CNC3CCCCCCC3)[nH]c2c1		0.1 (≈ 0.0291 µg/mL)
c1ccc2sc(CNC3CCCCC3)cc2c1		> 45
c1ccc2[nH]c(CNC3CCCCCCC3)cc2c1		0.75 (≈ 0.192 µg/mL)
O=C(NC1CCCCCCC1)c1cc2cc(O)ccc2[nH]1		48 (≈ 13.7 µg/mL)
O=C(NC1CCCCC1)c1cc2ccccc2[se]1		> 50
Cc1cc(C)c2cc(C(=O)NC3CCCCCCC3)[nH]c2c1		0.04 (≈ 0.0119 µg/mL)
Brc1ccc2cc(CNC3CCCCCCC3)[se]c2c1		0.54 (≈ 0.216 µg/mL)
O=C(NC1CCCCCCC1)c1cc2ccc(Br)cc2[se]1		0.78 (≈ 0.322 µg/mL)
c1ccc2[se]c(CNC34CC5CC(CC(C5)C3)C4)cc2c1		2.7 (≈ 0.93 µg/mL)
O=C(NC1CCCCC1)c1cc2ccc(C(F)(F)F)cc2[nH]1		1.6 (≈ 0.497 µg/mL)
Brc1ccc2cc(CNC3CCCCCCC3)[nH]c2c1		0.16 (≈ 0.0536 µg/mL)
c1ccc2sc(CNC34CC5CC(CC(C5)C3)C4)cc2c1		3.6 (≈ 1.07 µg/mL)
c1ccc(COc2ccc3[nH]c(CNC4CCCCCCC4)cc3c2)cc1		0.31 (≈ 0.112 µg/mL)
O=C(NC1CCCCCCC1)c1cc2ccccc2s1		0.5 (≈ 0.144 µg/mL)
c1ccc2[se]c(CNC3CCCCCC3)cc2c1		5 (≈ 1.53 µg/mL)
O=C(NC1CCCCCCC1)c1cc2ccc(Cl)cc2[nH]1		0.11 (≈ 0.0335 µg/mL)
O=C(NC1CCCCCCC1)c1cc2ccc(Br)cc2s1		0.8 (≈ 0.293 µg/mL)

Compound	MIC50 [µM]	MIC90 [µM]
Cc1cc(C)c2cc(CNC3CCCCCCC3)[nH]c2c1		0.25 (≈ 0.0711 µg/mL)
c1ccc2sc(CNC3CCCCCCC3)cc2c1		3.4 (≈ 0.93 µg/mL)
Fc1ccc2[nH]c(CNC3CCCCCCC3)cc2c1		0.33 (≈ 0.0905 µg/mL)
O=C(NC1CCCCCC1)c1cc2ccccc2s1		3 (≈ 0.82 µg/mL)
Brc1ccc2[nH]c(CNC3CCCCCCC3)cc2c1		0.74 (≈ 0.248 µg/mL)
Brc1ccc2cc(CNC3CCCCCCC3)sc2c1		2.2 (≈ 0.775 µg/mL)
O=C(NC1CCCCCCC1)c1cc2ccc(C(F)(F)F)cc2s1		0.4 (≈ 0.142 µg/mL)
COc1ccc2[nH]c(C(=O)NC3CCCCCCC3)cc2c1		0.65 (≈ 0.195 µg/mL)
O=C(NC1CCCCCCC1)c1cc2ccc(C(F)(F)F)cc2[se]1		1.8 (≈ 0.724 µg/mL)
COc1ccc2cc(C(=O)NC3CCCCCCC3)[nH]c2c1		1.1 (≈ 0.33 µg/mL)
NC(=O)c1cc2ccccc2s1		> 50
c1ccc2sc(CNC3CCCCCC3)cc2c1		5 (≈ 1.3 µg/mL)
Clc1ccc2[nH]c(CNC3CCCCCCC3)cc2c1		0.22 (≈ 0.064 µg/mL)
FC(F)(F)c1ccc2cc(CNC3CCCCCCC3)sc2c1		0.78 (≈ 0.266 µg/mL)
O=C(NC1CCCCCCC1)c1cc2ccc(O)cc2[nH]1		11 (≈ 3.15 µg/mL)
O=C(NC1CCCCCCC1)c1cc2cc([N+](=O)[O-])ccc2[nH]1		0.41 (≈ 0.129 µg/mL)
FC(F)(F)c1ccc2cc(CNC3CCCCCCC3)[nH]c2c1	0.04 (≈ 0.013 µg/mL)	0.08 (≈ 0.026 µg/mL)
O=C(NC1CCCCCCC1)c1cc2ccc(F)cc2[nH]1		0.18 (≈ 0.0519 µg/mL)
FC(F)(F)c1ccc2cc(CNC3CCCCCCC3)[se]c2c1		2 (≈ 0.777 µg/mL)

Compound	MIC50 [µM]	MIC90 [µM]
O=C(NC1CCCCCCC1)c1cc2cc(F)ccc2[nH]1		0.61 (≈ 0.176 µg/mL)
c1ccc2[se]c(CNC3CCCCC3)cc2c1		> 35
O=C(NC1CCCCCCC1)c1cc2cc(Br)ccc2[nH]1		1.1 (≈ 0.384 µg/mL)
O=C(NC1CCCCCCC1)c1cc2ccc(Br)cc2[nH]1		0.06 (≈ 0.021 µg/mL)
FC(F)(F)c1ccc2cc(CNC3CCCCC3)[nH]c2c1		1.1 (≈ 0.326 µg/mL)
O=C(NC1CCCCC1)c1cc2ccccc2s1		> 50
O=C(NC12CC3CC(CC(C3)C1)C2)c1cc2ccccc2s1		0.9 (≈ 0.28 µg/mL)
O=C(NC1CCCCCC1)c1cc2ccc(C(F)(F)F)cc2[nH]1		0.21 (≈ 0.0681 µg/mL)
O=C(NC1CCCCCCC1)c1cc2ccccc2[nH]1		0.52 (≈ 0.141 µg/mL)
c1ccc2[se]c(CNC3CCCCCCC3)cc2c1		2.1 (≈ 0.673 µg/mL)
Fc1ccc2cc(CNC3CCCCCCC3)[nH]c2c1		0.43 (≈ 0.118 µg/mL)
O=[N+]([O-])c1ccc2[nH]c(CNC3CCCCCCC3)cc2c1		0.69 (≈ 0.208 µg/mL)
COc1ccc2cc(CNC3CCCCCCC3)[nH]c2c1		1.2 (≈ 0.344 µg/mL)
O=C(NC12CC3CC(CC(C3)C1)C2)c1cc2ccccc2[se]1		1 (≈ 0.358 µg/mL)
O=C(NC1CCCCCCC1)c1cc2cc(OCc3ccccc3)ccc2[nH]1		0.17 (≈ 0.064 µg/mL)
O=C(NC1CCCCCC1)c1cc2ccccc2[se]1		2.7 (≈ 0.865 µg/mL)
O=C(NC1CCCCCCC1)c1cc2ccccc2[se]1		0.7 (≈ 0.234 µg/mL)
COc1ccc2[nH]c(CNC3CCCCCCC3)cc2c1		1.5 (≈ 0.43 µg/mL)
O=C(NC1CCCCCCC1)c1cc2ccc(OCc3ccccc3)cc2[nH]1		0.07 (≈ 0.0264 µg/mL)

System: Mycobacterium tuberculosis variant bovis
Experiment: Antimycobacterial activity against Mycobacterium bovis BCG ATCC 35734 assessed as inhibition of bacterial growth incubated for 5 days in 7H9 medium with omission of glycerol by broth dilution method
Assay type: functional
Settings: BCG ATCC 35734, 120 h, time 5 day

Compound	MIC50 [µM]
O=C(NC1CCCCCCC1)c1cc2ccc(C(F)(F)F)cc2[nH]1	0.01 (≈ 0.00338 µg/mL)
FC(F)(F)c1ccc2cc(CNC3CCCCCCC3)[nH]c2c1	0.04 (≈ 0.013 µg/mL)

System: Mycobacterium tuberculosis variant bovis
Experiment: Disruption of proton motive force in Mycobacterium bovis BCG ATCC 35734 assessed as loss in mitochondrial membrane potential by measuring decline in fluorescence ratio at 4XMIC90 measured after >=12 hrs by DiOC2 based fluorescence analysis
Assay type: functional, organism-based
Settings: not given

Compound	Activity
O=C(NC1CCCCCCC1)c1cc2ccc(C(F)(F)F)cc2[nH]1	Active
O=C(NC1CCCCCCC1)c1cc2ccccc2s1	Active
c1ccc2sc(CNC3CCCCCCC3)cc2c1	Active
FC(F)(F)c1ccc2cc(CNC3CCCCCCC3)[nH]c2c1	Active
c1ccc2[se]c(CNC3CCCCCCC3)cc2c1	Active
O=C(NC1CCCCCCC1)c1cc2ccccc2[se]1	Active

System: Mycobacterium tuberculosis variant bovis
Experiment: Antimycobacterial activity against Mycobacterium bovis BCG ATCC 35734 assessed as inhibition of bacterial growth incubated for 5 days in 7H9 medium with addition of 10% FBS by broth dilution method
Assay type: functional
Settings: BCG ATCC 35734, 120 h, time 5 day

Compound	MIC50 [µM]	MIC90 [µM]
O=C(NC1CCCCCCC1)c1cc2ccc(C(F)(F)F)cc2[nH]1	0.02 (≈ 0.00677 µg/mL)	0.08 (≈ 0.0271 µg/mL)
FC(F)(F)c1ccc2cc(CNC3CCCCCCC3)[nH]c2c1	0.07 (≈ 0.0227 µg/mL)	0.16 (≈ 0.0519 µg/mL)

System: Mycobacterium tuberculosis variant bovis
Experiment: Myco-bactericidal activity against Mycobacterium bovis BCG ATCC 35734 assessed as inhibition of bacterial colony formation incubated for 5 days by agar plate method
Assay type: functional
Settings: BCG ATCC 35734, 120 h, time 5 day, read-out: MBC99.9

Compound	MBC [µM]
O=C(NC1CCCCCCC1)c1cc2ccc(C(F)(F)F)cc2[nH]1	0.08 (≈ 0.0271 µg/mL)
NNC(=O)c1ccncc1 [ISONIAZID]	10 (≈ 1.37 µg/mL)
FC(F)(F)c1ccc2cc(CNC3CCCCCCC3)[nH]c2c1	0.16 (≈ 0.0519 µg/mL)
